Assay results published in ChEMBL document CHEMBL6078643, “Palladium-Mediated Bioorthogonal System for Prodrug Activation of N-Benzylbenzamide-Containing Tubulin Polymerization Inhibitors for the Treatment of Solid Tumors” (J Med Chem, 2024).
Each block holds one compound with its values, some of them ahead of it. The source made the active and inactive calls. No cut-off for these calls is given here.

Experiments:
K562 [1] = assay: Antiproliferative activity against human K562 cells assessed as reduction in cell viability incubated for 72 hrs by CCK-8 assay; assay type: functional, cell-based; conditions: K562, 72 h
HepG2 [2] = assay: Select factor, ratio of test compound IC50 to 4-(((4-((4-methoxyphenyl)(methyl)amino)quinazolin-2-yl)amino)methyl)phenol IC50 for antiproliferative activity against human HepG2 cells assessed as reduction in cell viability incubated for 72 hrs by CCK-8 assay; assay type: functional
HepG2 [3] = assay: Antiproliferative activity against human HepG2 cells assessed as reduction in cell viability incubated for 72 hrs by CCK-8 assay; assay type: functional, cell-based; conditions: HepG2, 72 h
[4] = Prodrug release in PBS buffer assessed as half release time of 4-(((4-((4-methoxyphenyl)(methyl)amino)quinazolin-2-yl)amino)methyl)phenol in presence of palladium resins at 75 uM by HPLC analysis; assay type: ADME
H22 [5] = assay: Antiproliferative activity against mouse H22 cells assessed as reduction in cell viability incubated for 72 hrs by CCK-8 assay; assay type: functional, cell-based; conditions: H22, 72 h
H22 [6] = assay: Select factor, ratio of test compound IC50 to 4-(((4-((4-methoxyphenyl)(methyl)amino)quinazolin-2-yl)amino)methyl)phenol IC50 for antiproliferative activity against mouse H22 cells assessed as reduction in cell viability incubated for 72 hrs by CCK-8 assay; assay type: functional
[7] = Select factor, ratio of test compound IC50 to 4-(((4-((4-methoxyphenyl)(methyl)amino)quinazolin-2-yl)amino)methyl)phenol IC50 for antiproliferative activity against human THLE-2 cells assessed as reduction in cell viability incubated for 72 hrs by CCK-8 assay; assay type: toxicity, cell-based; conditions: read-out: Ratio IC50
K562 [8] = assay: Select factor, ratio of test compound IC50 to 4-(((4-((4-methoxyphenyl)(methyl)amino)quinazolin-2-yl)amino)methyl)phenol IC50 for antiproliferative activity against human K562 cells assessed as reduction in cell viability incubated for 72 hrs by CCK-8 assay; assay type: functional
[9] = Antiproliferative activity against human THLE-2 cells assessed as reduction in cell viability incubated for 72 hrs by CCK-8 assay; assay type: toxicity, cell-based
[10] = Prodrug release in PBS buffer assessed as half release time of 5-fluoro-N-(3-hydroxy-4-methoxybenzyl)-2-morpholinobenzamide in presence of palladium resins at 75 uM by HPLC analysis; assay type: ADME
[11] = Select factor, ratio of test compound IC50 to 5-fluoro-N-(3-hydroxy-4-methoxybenzyl)-2-morpholinobenzamide IC50 for antiproliferative activity against human THLE-2 cells assessed as reduction in cell viability incubated for 72 hrs by CCK-8 assay; assay type: toxicity, cell-based; conditions: read-out: Ratio IC50
HepG2 [12] = assay: Select factor, ratio of test compound IC50 to 5-fluoro-N-(3-hydroxy-4-methoxybenzyl)-2-morpholinobenzamide IC50 for antiproliferative activity against human HepG2 cells assessed as reduction in cell viability incubated for 72 hrs by CCK-8 assay; assay type: functional
H22 [13] = assay: Select factor, ratio of test compound IC50 to 5-fluoro-N-(3-hydroxy-4-methoxybenzyl)-2-morpholinobenzamide IC50 for antiproliferative activity against mouse H22 cells assessed as reduction in cell viability incubated for 72 hrs by CCK-8 assay; assay type: functional
K562 [14] = assay: Select factor, ratio of test compound IC50 to 5-fluoro-N-(3-hydroxy-4-methoxybenzyl)-2-morpholinobenzamide IC50 for antiproliferative activity against human K562 cells assessed as reduction in cell viability incubated for 72 hrs by CCK-8 assay; assay type: functional
Tubulin (Homo sapiens) [15] = biological target: T1, Tubulin (Homo sapiens) (UniProt P68371+Q9H4B7+P0DPH7+P68366+Q13509+Q71U36+P04350+Q3ZCM7+P07437+P68363+Q9BQE3+Q6PEY2+Q13885+Q9BVA1+Q9BUF5); assay: In vivo inhibition of tubulin polymerization in human HepG2 cells xenografted in Balb/c mouse assessed as decrease in alpha tubulin expression at 20 mg/kg, iv administered daily for 14 days incubated for 24 hrs by Western blot analysis; assay type: functional, organism-based; conditions: time 14.0 day
K562 [16] = assay: Induction of cell cycle arrest in human K562 cells assessed as accumulation of cells at S phase at 20 nM incubated for 72 hrs by PI staining based flow cytometric analysis ( Rvb = 14.04 %); assay type: functional
Tubulin (Homo sapiens) [17] = biological target: T1, Tubulin (Homo sapiens); assay: Inhibition of tubulin polymerization in human HepG2 cells assessed as decrease in beta tubulin expression at 19 nM incubated for 24 hrs by Western blotting analysis; assay type: cell-based
HepG2 [18] = assay: Antitumor activity against human HepG2 cells xenografted in Balb/c mouse assessed as cell necrosis at 20 mg/kg, iv administered daily for 14 days by TUNEL staining based analysis; assay type: functional, organism-based; conditions: time 14.0 day
K562 [19] = assay: Induction of apoptosis in human K562 cells assessed as late apoptotic cells at 20 nM incubated for 72 hrs by Annexin V-APC staining based flow cytometric analysis (reference value: 1.36%); assay type: functional
K562 [20] = assay: Induction of apoptosis in human K562 cells assessed as viable cells at 20 nM incubated for 72 hrs by Annexin V-APC staining based flow cytometric analysis (reference value: 94.21%); assay type: functional; conditions: read-out: Activity
K562 [21] = assay: Induction of cell cycle arrest in human K562 cells assessed as accumulation of cells at G1 phase at 20 nM incubated for 72 hrs by PI staining based flow cytometric analysis ( Rvb = 77.46 %); assay type: functional
HepG2 [22] = assay: Antitumor activity against human HepG2 cells xenografted in Balb/c mouse assessed as cell necrosis at 20 mg/kg, iv administered daily for 14 days by H and E staining based analysis; assay type: functional, organism-based; conditions: time 14.0 day
Tubulin (Homo sapiens) [23] = biological target: T1, Tubulin (Homo sapiens); assay: Disruption of microtubule organization in human K562 cells at 20 nM incubated for 72 hrs by DAPI staining based confocal microscopic analysis; assay type: cell-based
Tubulin (Homo sapiens) [24] = biological target: T1, Tubulin (Homo sapiens); assay: Inhibition of tubulin polymerization in human HepG2 cells assessed as decrease in alpha tubulin expression at 19 nM incubated for 24 hrs by Western blotting analysis; assay type: cell-based
K562 [25] = assay: Induction of apoptosis in human K562 cells assessed as early apoptotic cells at 20 nM incubated for 72 hrs by Annexin V-APC staining based flow cytometric analysis (reference value: 2.78%); assay type: functional
K562 [26] = assay: Induction of apoptosis in human K562 cells assessed as necrotic cells at 20 nM incubated for 72 hrs by Annexin V-APC staining based flow cytometric analysis (reference value: 1.65%); assay type: functional
Tubulin (Homo sapiens) [27] = biological target: T1, Tubulin (Homo sapiens); assay: Inhibition of tubulin polymerization in human K562 cells assessed as decrease in alpha tubulin expression at 16 nM incubated for 24 hrs by Western blotting analysis; assay type: cell-based
Tubulin (Homo sapiens) [28] = biological target: T1, Tubulin (Homo sapiens); assay: Inhibition of tubulin polymerization in human HepG2 cells assessed as decrease in polymerized alpha tubulin level at 19 nM incubated for 24 hrs by Western blotting analysis; assay type: cell-based
HepG2 [29] = assay: Antiproliferative activity against human HepG2 cells at 100 nM incubated for 72 hrs in presence of palladium resins by CCK-8 assay; assay type: functional, cell-based
K562 [30] = assay: Antiproliferative activity against human K562 cells at 100 nM incubated for 72 hrs in presence of palladium resins by CCK-8 assay; assay type: functional, cell-based
K562 [31] = assay: Induction of cell cycle arrest in human K562 cells assessed as accumulation of cells at G2 phase at 20 nM incubated for 72 hrs by PI staining based flow cytometric analysis ( Rvb = 8.5 %); assay type: functional
Tubulin (Homo sapiens) [32] = biological target: T1, Tubulin (Homo sapiens); assay: Inhibition of tubulin polymerization in human K562 cells assessed as decrease in polymerized alpha tubulin level at 16 nM incubated for 24 hrs by Western blotting analysis; assay type: cell-based
Tubulin (Homo sapiens) [33] = biological target: T1, Tubulin (Homo sapiens); assay: In vivo inhibition of tubulin polymerization in human HepG2 cells xenografted in Balb/c mouse assessed as decrease in beta tubulin expression at 20 mg/kg, iv administered daily for 14 days incubated for 24 hrs by Western blot analysis; assay type: functional, organism-based; conditions: time 14.0 day
HepG2 [34] = assay: Antitumor activity against human HepG2 cells xenografted in Balb/c mouse assessed as tumor growth inhibition at 20 mg/kg, iv administered daily for 14 days relative to control; assay type: functional; conditions: HepG2, 336 h, time 14 day, read-out: TGI
[35] = biological target: Bcr/Abl fusion protein (Homo sapiens) (UniProt P00519+P11274); assay: Inhibition of Bcr-Abl in human K562 cells at 16 nM incubated for 24 hrs by Western blotting analysis; assay type: cell-based
Bcr/Abl fusion protein (Homo sapiens), sequence (P00519 whole entry, looked up, the tested form may be a part): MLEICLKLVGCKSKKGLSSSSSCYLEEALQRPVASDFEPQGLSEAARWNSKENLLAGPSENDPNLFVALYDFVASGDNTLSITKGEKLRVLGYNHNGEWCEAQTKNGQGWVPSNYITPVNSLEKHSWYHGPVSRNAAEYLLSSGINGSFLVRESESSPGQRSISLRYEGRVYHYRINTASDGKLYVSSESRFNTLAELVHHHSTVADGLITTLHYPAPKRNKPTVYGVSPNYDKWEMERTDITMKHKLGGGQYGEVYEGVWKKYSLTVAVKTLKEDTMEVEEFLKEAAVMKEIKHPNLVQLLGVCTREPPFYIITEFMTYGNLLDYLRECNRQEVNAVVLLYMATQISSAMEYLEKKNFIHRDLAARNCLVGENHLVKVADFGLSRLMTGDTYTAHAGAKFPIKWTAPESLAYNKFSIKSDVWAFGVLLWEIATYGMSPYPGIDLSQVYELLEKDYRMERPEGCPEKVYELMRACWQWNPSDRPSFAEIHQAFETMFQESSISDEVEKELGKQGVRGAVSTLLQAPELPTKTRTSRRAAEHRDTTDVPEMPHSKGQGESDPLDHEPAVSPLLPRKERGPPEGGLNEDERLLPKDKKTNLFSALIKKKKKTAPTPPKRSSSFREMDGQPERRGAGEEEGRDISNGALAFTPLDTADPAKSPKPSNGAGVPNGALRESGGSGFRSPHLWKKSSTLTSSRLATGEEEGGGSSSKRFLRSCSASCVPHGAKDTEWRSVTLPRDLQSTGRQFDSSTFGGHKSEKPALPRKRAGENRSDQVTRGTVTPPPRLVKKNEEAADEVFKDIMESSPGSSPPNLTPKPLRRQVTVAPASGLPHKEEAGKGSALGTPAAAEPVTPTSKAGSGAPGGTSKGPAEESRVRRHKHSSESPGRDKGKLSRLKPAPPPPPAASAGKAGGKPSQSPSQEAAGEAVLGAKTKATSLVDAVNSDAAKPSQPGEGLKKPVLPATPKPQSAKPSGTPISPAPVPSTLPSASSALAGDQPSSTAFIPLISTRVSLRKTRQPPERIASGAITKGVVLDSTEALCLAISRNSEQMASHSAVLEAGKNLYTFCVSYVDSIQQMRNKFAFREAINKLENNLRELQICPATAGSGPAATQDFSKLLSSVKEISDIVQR
Bcr/Abl fusion protein (Homo sapiens), sequence (P11274 whole entry, looked up, the tested form may be a part): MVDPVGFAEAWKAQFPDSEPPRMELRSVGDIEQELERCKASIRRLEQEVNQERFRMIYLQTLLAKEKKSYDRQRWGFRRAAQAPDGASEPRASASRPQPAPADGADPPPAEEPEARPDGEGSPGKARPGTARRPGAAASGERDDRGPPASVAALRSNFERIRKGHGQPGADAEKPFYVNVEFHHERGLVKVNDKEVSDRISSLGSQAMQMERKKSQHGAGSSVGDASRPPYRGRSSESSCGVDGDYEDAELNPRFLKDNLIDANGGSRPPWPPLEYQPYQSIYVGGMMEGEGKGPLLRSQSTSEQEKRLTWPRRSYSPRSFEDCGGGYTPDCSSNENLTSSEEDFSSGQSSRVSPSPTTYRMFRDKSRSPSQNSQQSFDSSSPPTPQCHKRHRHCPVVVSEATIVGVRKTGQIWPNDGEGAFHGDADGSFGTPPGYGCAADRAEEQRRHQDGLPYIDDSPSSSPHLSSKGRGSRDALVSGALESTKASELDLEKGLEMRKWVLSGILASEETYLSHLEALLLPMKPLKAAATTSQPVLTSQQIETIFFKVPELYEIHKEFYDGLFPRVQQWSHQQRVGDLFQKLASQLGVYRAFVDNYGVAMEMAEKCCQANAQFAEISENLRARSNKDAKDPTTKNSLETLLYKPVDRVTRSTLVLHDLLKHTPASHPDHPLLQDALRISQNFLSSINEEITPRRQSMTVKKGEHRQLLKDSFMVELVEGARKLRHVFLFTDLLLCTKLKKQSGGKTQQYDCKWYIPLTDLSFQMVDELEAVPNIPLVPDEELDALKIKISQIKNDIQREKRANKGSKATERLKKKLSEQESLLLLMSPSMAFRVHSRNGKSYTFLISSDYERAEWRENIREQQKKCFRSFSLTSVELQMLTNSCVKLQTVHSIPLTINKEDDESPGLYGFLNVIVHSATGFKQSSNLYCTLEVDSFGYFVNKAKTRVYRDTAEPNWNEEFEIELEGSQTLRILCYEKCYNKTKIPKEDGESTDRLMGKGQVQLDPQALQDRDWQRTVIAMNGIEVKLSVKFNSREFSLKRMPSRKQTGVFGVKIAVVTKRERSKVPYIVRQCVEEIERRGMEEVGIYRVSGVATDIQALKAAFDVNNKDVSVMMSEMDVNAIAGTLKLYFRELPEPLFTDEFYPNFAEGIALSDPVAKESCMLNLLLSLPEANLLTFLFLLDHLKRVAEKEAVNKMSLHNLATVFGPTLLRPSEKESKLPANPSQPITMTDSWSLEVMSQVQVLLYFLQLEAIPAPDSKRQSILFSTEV

Tubulin (Homo sapiens) [36] = biological target: T1, Tubulin (Homo sapiens); assay: Inhibition of tubulin polymerization in human K562 cells assessed as decrease in beta tubulin expression at 16 nM incubated for 24 hrs by Western blotting analysis; assay type: cell-based

Compound: C=CCOc1cc(CNC(=O)c2cc(F)ccc2N2CCOCC2)ccc1OC
IC50 (K562 [1]): 3980 nM
t1/2 [10]: > 24 h
selectivity ratio at 72 h [11]: 25.6
IC50 (HepG2 [3]): 541 nM
Ratio IC50 (HepG2 [12]): 28.2
IC50 (H22 [5]): 282 nM
Ratio IC50 (H22 [13]): 13.9
IC50 at 72 h [9]: 5470 nM
Ratio IC50 (K562 [14]): 248.8

Compound: COc1ccc(CNC(=O)c2cc(F)ccc2N2CCOCC2)cc1O
IC50 (K562 [1]): 16 nM
Activity (Tubulin (Homo sapiens) [15]): Active
Activity (K562 [16]): 32.73%
inhibition (Tubulin (Homo sapiens) [17]): Active
Activity (HepG2 [18]): Active
Activity (K562 [19]): 59.77%
viability at 0.02 µM (K562 [20]): 15.2%
Activity (K562 [21]): 45.95%
Activity (HepG2 [22]): Active
Activity (Tubulin (Homo sapiens) [23]): Active
inhibition (Tubulin (Homo sapiens) [24]): Active
Activity (K562 [25]): 20.68%
Activity (K562 [26]): 4.31%
inhibition (Tubulin (Homo sapiens) [27]): Active
IC50 (HepG2 [3]): 19.2 nM
inhibition (Tubulin (Homo sapiens) [28]): Active
Activity (HepG2 [29]): Active
IC50 (H22 [5]): 20.3 nM
Activity (K562 [30]): Active
Activity (K562 [31]): 21.32%
inhibition (Tubulin (Homo sapiens) [32]): Active
Activity (Tubulin (Homo sapiens) [33]): Active
IC50 at 72 h [9]: 21.4 nM
inhibition in vivo at 20 mg/kg (HepG2 [34]): 49.6%
inhibition [35]: Active
inhibition (Tubulin (Homo sapiens) [36]): Active

Compound: C#CC(C)(C)Oc1cc(CNC(=O)c2cc(F)ccc2N2CCOCC2)ccc1OC
IC50 (K562 [1]): 460 nM
t1/2 [10]: 14.5 h
selectivity ratio at 72 h [11]: 62.2
IC50 (HepG2 [3]): 1110 nM
Ratio IC50 (HepG2 [12]): 57.8
IC50 (H22 [5]): 444 nM
Ratio IC50 (H22 [13]): 21.9
IC50 at 72 h [9]: 1330 nM
Ratio IC50 (K562 [14]): 28.7

Continued, in another order:

IC50 (K562 [1]): 470 nM
IC50 (HepG2 [3]): 914 nM
t1/2 [4]: 4.2 h
Compound: C#CCOc1ccc(CNc2nc(N(C)c3ccc(OC)cc3)c3ccccc3n2)cc1
Ratio IC50 (HepG2 [2]): 63.5
IC50 (H22 [5]): 229 nM
Ratio IC50 (H22 [6]): 11.8
selectivity ratio at 72 h [7]: 15.5
Ratio IC50 (K562 [8]): 24.1
IC50 at 72 h [9]: 703 nM

IC50 (K562 [1]): 502 nM
IC50 (HepG2 [3]): 402 nM
t1/2 [4]: > 24 h
Compound: C=CCOc1ccc(CNc2nc(N(C)c3ccc(OC)cc3)c3ccccc3n2)cc1
Ratio IC50 (HepG2 [2]): 27.9
IC50 (H22 [5]): 285 nM
Ratio IC50 (H22 [6]): 14.8
selectivity ratio at 72 h [7]: 7.8
Ratio IC50 (K562 [8]): 25.7
IC50 at 72 h [9]: 353 nM

IC50 (K562 [1]): 19.5 nM
IC50 (HepG2 [3]): 14.4 nM
Compound: COc1ccc(N(C)c2nc(NCc3ccc(O)cc3)nc3ccccc23)cc1
IC50 (H22 [5]): 19.3 nM
IC50 at 72 h [9]: 45.4 nM

IC50 (K562 [1]): 508 nM
IC50 (HepG2 [3]): 491 nM
t1/2 [4]: 5.8 h
Compound: C#CC(C)(C)Oc1ccc(CNc2nc(N(C)c3ccc(OC)cc3)c3ccccc3n2)cc1
Ratio IC50 (HepG2 [2]): 34.1
IC50 (H22 [5]): 473 nM
Ratio IC50 (H22 [6]): 24.5
selectivity ratio at 72 h [7]: 11.4
Ratio IC50 (K562 [8]): 26
IC50 at 72 h [9]: 516 nM
